In patent publication US9073929B2, “Aldosterone synthase inhibitors” (ElexoPharm GmbH, priority 2011, dated 2015) one finds IC50 data, which are given here for 19 molecules.

One may read the IC50 as the point on the concentration scale where inhibition reaches its midpoint.

What all share (format): cell-based
Test [1] deals with T1, human CYP11B1 (Homo sapiens, UniProt P15538).
T1 construct: expressed in transfected cells; host or cells: V79MZh11B1 cells
T1 sequence (P15538 25-503): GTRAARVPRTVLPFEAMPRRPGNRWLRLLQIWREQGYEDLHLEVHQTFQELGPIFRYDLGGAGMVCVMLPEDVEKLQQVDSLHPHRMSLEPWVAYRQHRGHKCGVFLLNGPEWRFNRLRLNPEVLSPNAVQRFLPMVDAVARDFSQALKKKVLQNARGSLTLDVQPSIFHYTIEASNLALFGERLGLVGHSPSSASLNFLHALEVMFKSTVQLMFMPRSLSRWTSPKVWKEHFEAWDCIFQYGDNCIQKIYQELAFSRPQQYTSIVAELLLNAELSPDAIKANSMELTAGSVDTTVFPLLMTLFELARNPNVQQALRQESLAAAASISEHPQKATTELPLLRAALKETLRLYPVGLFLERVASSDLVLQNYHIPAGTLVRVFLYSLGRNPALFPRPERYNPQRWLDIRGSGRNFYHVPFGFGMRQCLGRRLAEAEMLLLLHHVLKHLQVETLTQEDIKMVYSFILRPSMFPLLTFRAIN
Kind of test: V79-Human-CYP11B1 cell assay, modified protocol (280,000 cells/mL). The conditions noted are these: 0.30 μl inhibitor. The method, then:
(§1) V79 cell lines stably expressing the either the human CYP11B2 or the human CYP11B1 enzyme were generated using a standard transfection protocol. V79 cells were transfected with plasmids pTriEx3-Hygro-hCyp11B2 or pTriEx3-Hygro-hCyp11B1 using Lipofectamine2000 reagent. V79 cells that stably express the human CYP11B2 or human CYP11B1 enzyme were selected for and maintained in DMEM supplemented with 10% FBS and 400 μg/mL hygromycin for ˜2 weeks. Single cell clones were generated by infinite dilution in DMEM supplemented with 10% FBS and 400 μg/mL hygromycin until single colonies were obtained. […] For testing of inhibitors, cells were harvested at 80% confluency with 0.5% Trypsan-EDTA, washed once in PBS, and reconstituted in DMEM+0.1% BSA media at a cell concentration of 400,000 cells/mL. 25 μl of cells were added to a 384 well tissue culture treated plate and mixed with 0.25 μl of inhibitor or DMSO (1% final DMSO concentration) for 1 hour at 37° C., 5% CO2. After pre-incubation with inhibitor, the reaction was initiated by adding 5 μl of substrate (final concentration of 125 nM 11-deoxycorticosterone for the CYP11B2 assay or 250 nM 11-deoxycortisol for the CYP11B1 assay). The reaction was carried out for 3 hours at 37° C., 5% CO2 and was stopped by harvesting the supernatants. The amount of product in the supernatant (aldosterone for CYP11B2 assay and cortisol for the CYP11B1 assay) was measured using HTRF-based assay kit (Aldosterone HTRF-CisBio#64ALDPEB, Cortisol HTRF-CisBio #631DC002-CORT). IC50's for the inhibitor were determined by plotting the amount of product formed against the concentration of inhibitor using sigmoidal dose-response curve (variable slope) fit in GraphPad.
(§2) For the CYP11B2 assay, cells were reconstituted in DMEM+0.1% BSA media at a cell concentration of 600,000 cells/mL and for the CYP11B1 assay cells were reconstituted in DMEM+0.1% BSA media at a cell concentration of 280,000 cells/mL. 25 μl of cells were added to a 384 well tissue culture treated plate and mixed with 0.30 μl of inhibitor or DMSO (1% final DMSO concentration) for 1 hour at 37° C., 5% CO2.

The target of test [2] is T2, human CYP11B2 (Homo sapiens, UniProt P19099).
T2 construct: expressed in transfected cells; host or cells: V79 cells (clone V79-hCYP11B2-CLE9)
T2 sequence (P19099 25-503): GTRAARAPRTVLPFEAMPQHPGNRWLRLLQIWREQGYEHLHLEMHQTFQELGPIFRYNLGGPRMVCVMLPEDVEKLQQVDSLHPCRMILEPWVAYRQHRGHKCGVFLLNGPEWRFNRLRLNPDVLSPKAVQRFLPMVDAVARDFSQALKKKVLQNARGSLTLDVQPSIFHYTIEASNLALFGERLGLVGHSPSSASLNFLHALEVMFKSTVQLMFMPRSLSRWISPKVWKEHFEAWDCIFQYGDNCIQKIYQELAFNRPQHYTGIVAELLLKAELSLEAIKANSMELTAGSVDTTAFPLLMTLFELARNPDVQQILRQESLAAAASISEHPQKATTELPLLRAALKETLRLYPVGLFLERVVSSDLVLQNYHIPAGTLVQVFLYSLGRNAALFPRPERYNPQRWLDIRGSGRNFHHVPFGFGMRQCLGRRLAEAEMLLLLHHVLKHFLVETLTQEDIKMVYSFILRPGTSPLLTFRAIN
Kind of test: V79-Human-CYP11B2 cell assay, modified protocol (600,000 cells/mL). The conditions noted are these: 0.30 μl inhibitor. The method, then:
as §1, §2

Test [3] addresses T1, human CYP11B1. Kind of test: V79MZh11B1 cell assay, [3H]-deoxycorticosterone, HPLC radioflow detection. To be noted: V79MZh11B1 cells, 100 nM deoxycorticosterone, 25 min, read-out: V79 Human CYP11B1 IC50. How it is done: (§3) Compounds of the Examples 157-170 were assayed for V79-Human-CYP11B2 and V79-Human-CYP11B1 by modifying the protocol described in J. Steroid Biochem. Mol. Biol. 81; 173-179 (2002). V79MZh11B1 and V79MZh11B2 cells (8×10^5 cells/well) were grown on 24-well culture plates until confluence. Before testing, the DMEM culture medium was removed and 450 μl of fresh DMEM containing the inhibitor was added to each well. After a preincubation step of 60 min at 37° C., the reaction was started by the addition of 50 μl of DMEM in which the substrate deoxycorticosterone (containing 0.15 μCi of [1,2-3H]-deoxycorticosterone in ethanol, final test concentration 100 nM) was dissolved. Incubation times were 25 min for V79MZh11B1 and 50 min for V79MZh11B2 cells at 37° C., respectively. The enzyme reactions were stopped by extracting the supernatant with ethyl acetate. Samples were centrifuged (10.000 g, 5 min) and the solvent was pipetted into fresh cups. After evaporation of the solvent, the steroids were redissolved in 40 μl of […] and analyzed by HPLC. Detection and quantification of the steroids were performed using a radioflow detector. […] The inhibitor concentrations were all in the linear range of the dose-response-curves, so that the coefficients of correlation were at least 0.95 for each determination. The final IC50 value was estimated as the average of three or four independent IC50 values and a selectivity factor corresponding to the ratio between the IC50 values of CYP11B1 and CYP11B2 was calculated for each substance.

For test [4], the target named is T2, human CYP11B2. Kind of test: V79MZh11B2 cell assay, [3H]-deoxycorticosterone, HPLC radioflow detection. The conditions noted are these: V79MZh11B2 cells, 100 nM deoxycorticosterone, 50 min, read-out: V79 Human CYP11B2 IC50. How it is done:
as §3

“9-chloro-7-(5-chloro-4- methylpyridin-3-yl)-1- methyl-4,5-dihydro- [1,2,4]triazolo[4,3- a]quinoline [Example 93]”: the figures for the IC50 in test [1] and in test [2] were 765 nM and 6 nM, respectively.
The like results for `CCc1c(F)cncc1-c1cc(Cl)c2c(c1)CCc1nnc(C)n1-2` [Example 80, 9-chloro-7-(4-ethyl-5-fluoropyridin-3-yl)-1-methyl-4,5-dihydro[1,2,4]triazolo-[4,3-a]quinoline] were, in that order, 3140 nM and 7 nM.
As for `Cc1nnc2n1-c1c(Cl)cc(-c3cnccc3C(F)(F)F)cc1CC2` [Example 83, 9-chloro-1-methyl-7-(4-(trifluoromethyl)pyridin-3-yl)-4,5-dihydro-[1,2,4] triazolo[4,3-a]quinoline], the concentration for half-maximal inhibition (IC50) in test [1] was greater than 30000 nM; in test [2], 22 nM.
Turning to `Cc1nnc2n1-c1c(Cl)cc(-c3cnccc3C3CC3)cc1CC2` [Example 96, 9-chloro-7-(4-cyclopropylpyridin-3-yl)-1-methyl-4,5-dihydro-[1,2,4]triazolo[4,3-a]quinoline], the half-inhibitory concentration (IC50) was determined as 6930 nM in test [1] and 48 nM in test [2].
`Cc1nnc2n1-c1cc(Cl)c(-c3cncc4ccccc34)cc1CC2` [Example 113, 8-chloro-7-(isoquinolin-4-yl)-1-methyl-4,5-dihydro-[1,2,4]triazolo[4,3-a]quinoline]: the concentration for half-maximal inhibition (IC50) in test [1] is greater than 10000 nM; in test [2], 17 nM.
Turning to `Cc1nnc2n1-c1c(F)cc(-c3cncc(F)c3)cc1CC2` [Example 157, 9-fluoro-7-(5-fluoro-pyridin-3-yl)-1-methyl-4,5-dihydro-[1,2,4]triazolo[4,3-a]quinoline], the results for the IC50 in test [3] and in test [4] were 29500 nM and 89.7 nM, respectively.
With `COc1cncc(-c2cc(F)c3c(c2)CCc2nnc(C)n2-3)c1` [Example 158, 9-fluoro-7-(5-methoxy-pyridin-3-yl)-1-methyl-4,5-dihydro-[1,2,4]triazolo[4,3-a] quinoline], the figures for the 50% inhibitory concentration (IC50) in test [3] and in test [4] were 1810 nM and 20.3 nM, respectively.
`Cc1nnc2n1-c1c(F)cc(-c3cncc(C(C)O)c3)cc1CC2` (centres unmarked) [Example 159, 1-[5-(9-fluoro-1-methyl-4,5-dihydro-[1,2,4]triazolo[4,3-a]quinolin-7-yl)-pyridin-3-yl]-ethanol]: the IC50 in test [3] amounted to 3910 nM; in test [4], 28.3 nM.
Consider `CC(=O)c1cncc(-c2cc(F)c3c(c2)CCc2nnc(C)n2-3)c1` [Example 160, 1-[5-(9-fluoro-1-methyl-4,5-dihydro-[1,2,4]triazolo[4,3-a]quinolin-7-yl)-pyridin-3-yl]-ethanone], for which the figures for the IC50 in test [3] and in test [4] were 6970 nM and 87.6 nM, respectively.
In the same order, the values of `Cc1nnc2n1-c1c(F)cc(-c3cncc(C(F)(F)F)c3)cc1CC2` [Example 161, 9-fluoro-1-methyl-7-(5-trifluoromethyl-pyridin-3-yl)-4,5-dihydro-[1,2,4]triazolo [4,3-a]quinoline] are 3570 nM and 57.2 nM.
Turning to `Cc1nnc2n1-c1c(F)cc(-c3cncc(-c4ccccc4)c3)cc1CC2` [Example 162, 9-fluoro-1-methyl-7-(5-phenyl-pyridin-3-yl)-4,5-dihydro-[1,2,4]triazolo[4,3-a]quinoline], the IC50 in test [3] stood at 428 nM; in test [4] it was 7.1 nM.
For the molecule `Cc1ccncc1-c1cc(F)c2c(c1)CCc1nnc(C)n1-2` [Example 163, 9-fluoro-1-methyl-7-(4-methyl-pyridin-3-yl)-4,5-dihydro-[1,2,4]triazolo[4,3-a]quinoline], the IC50 stood at 1770 nM in test [3] and 4.2 nM in test [4].
`Cc1nnc2n1-c1c(F)cc(-c3cncc4ccccc34)cc1CC2` [Example 164, 9-fluoro-7-isoquinolin-4-yl-1-methyl-4,5-dihydro-[1,2,4]triazolo[4,3-a]quinoline]: the IC50 turned out to be 110 nM in test [3] and 2.2 nM in test [4].
As to `Cc1nnc2n1-c1c(F)cc(-c3cccnc3)cc1CC2` [Example 165, 9-fluoro-1-methyl-7-pyridin-3-yl-4,5-dihydro-[1,2,4]triazolo[4,3-a]quinoline], the half-maximal inhibitory concentration (IC50) in test [3] worked out at 17000 nM; in test [4], 62.5 nM.
As for `Fc1cc(-c2cccnc2)cc2c1-n1cnnc1CC2` [Example 166, 9-fluoro-7-pyridin-3-yl-4,5-dihydro-[1,2,4]triazolo[4,3-a]quinoline], the IC50 amounted to 16100 nM in test [3] and 172 nM in test [4].
Regarding `Cc1nnc2n1-c1cc(F)c(-c3cccnc3)cc1CC2` [Example 167, 8-fluoro-1-methyl-7-pyridin-3-yl-4,5-dihydro-[1,2,4]triazolo[4,3-a]quinoline], the concentration for half-maximal inhibition (IC50) was determined as 12600 nM in test [3] and 131 nM in test [4].
With `Fc1cc2c(cc1-c1cccnc1)CCc1nncn1-2` [Example 168, 8-fluoro-7-pyridin-3-yl-4,5-dihydro-[1,2,4]triazolo[4,3-a]quinoline], the IC50 amounted to 7900 nM in test [3] and 244 nM in test [4].
`CCc1c(F)cncc1-c1cc(F)c2c(c1)CCc1nnc(C)n1-2` [Example 169, 7-(4-ethyl-5-fluoropyridin-3-yl)-9-fluoro-1-methyl-4,5-dihydro-[1,2,4]triazolo[4,3-a]quinoline]: the IC50 in test [3] turned out to be 3070 nM; in test [4], 11 nM.
On to `CCc1c(F)cncc1-c1cc2c(c(F)c1F)-n1c(C)nnc1CC2` [Example 170, 7-(4-ethyl-5-fluoropyridin-3-yl)-8,9-difluoro-1-methyl-4,5-dihydro-[1,2,4]triazolo[4,3-a]quinoline], for which the results for the IC50 in test [3] and in test [4] were 17300 nM and 41 nM, respectively.
